In patent US20040186081A1, “Naaladase inhibitors for treating opioid tolerance” (Guilford Pharmaceuticals Inc., priority 2003, published 2004):

Target: NAALADase (Homo sapiens, UniProt Q04609)
Assay: In vitro inhibition of NAALADase activity
Type: biochemical
Settings: not given

Chain of NAALADase (Q04609 whole entry): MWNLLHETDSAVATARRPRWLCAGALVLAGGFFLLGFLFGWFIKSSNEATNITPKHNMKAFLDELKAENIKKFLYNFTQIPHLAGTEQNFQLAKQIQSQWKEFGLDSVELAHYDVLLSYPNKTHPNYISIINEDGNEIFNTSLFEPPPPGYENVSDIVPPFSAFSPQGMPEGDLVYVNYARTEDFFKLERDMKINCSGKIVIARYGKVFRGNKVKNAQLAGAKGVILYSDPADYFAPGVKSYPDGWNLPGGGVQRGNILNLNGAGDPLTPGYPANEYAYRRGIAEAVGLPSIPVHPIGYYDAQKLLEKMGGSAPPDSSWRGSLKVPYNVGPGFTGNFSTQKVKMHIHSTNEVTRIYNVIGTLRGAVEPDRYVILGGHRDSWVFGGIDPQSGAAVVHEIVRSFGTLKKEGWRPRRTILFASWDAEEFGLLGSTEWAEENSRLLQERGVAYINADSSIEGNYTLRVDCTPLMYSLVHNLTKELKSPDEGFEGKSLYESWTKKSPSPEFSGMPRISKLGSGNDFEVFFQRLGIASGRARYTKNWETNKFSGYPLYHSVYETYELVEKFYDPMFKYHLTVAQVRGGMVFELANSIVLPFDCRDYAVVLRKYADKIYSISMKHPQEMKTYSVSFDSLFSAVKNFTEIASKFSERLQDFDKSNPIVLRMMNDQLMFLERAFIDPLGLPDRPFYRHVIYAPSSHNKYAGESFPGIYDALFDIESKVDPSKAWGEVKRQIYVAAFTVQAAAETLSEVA

Row | Ki [nM] | SMILES
1 | 1870 | O=C(O)c1ccc(C(=O)O)c(S(=O)(=O)c2cc(C(=O)O)ccc2C(=O)O)c1 [2-[(2,5-dicarboxyphenyl)sulfonyl]-1,4-benzenedicarboxylic acid]
2 | 572 | O=C(O)c1ccc(C(=O)O)c(Sc2ccccc2C(=O)O)c1 [2-[(2-carboxyphenyl)thio]-1,4-benzenedicarboxylic acid]
3 | 2370 | O=C(O)c1ccc(S(=O)(=O)c2cc(C(=O)O)ccc2C(=O)O)cc1 [2-[(4-carboxyphenyl)sulfonyl]-1,4-benzenedicarboxylic acid]
4 | 9000 | O=C(O)Cc1cc(C(=O)O)ccc1C(=O)O [2-carboxymethyl-1,4-benzenedicarboxylic acid]

Same assay, conditions: IC50

Row | IC50 [nM] | SMILES
5 | ≥ 100000 | O=C(NO)c1ccccc1O [2,N-Dihydroxy-benzamide]

Same assay, conditions: read-out: IC50

Row | SMILES | IC50 [nM]
6 | O=C(O)c1ccc(CNC(=O)c2cc(C(=O)O)cc(C(=O)NO)c2)cc1 | 2780
7 | O=C(CSCc1ccc(OCc2ccc(C(=O)O)cc2)c(C(=O)O)c1)NO | 1330
8 | O=C(CSCCc1cccc(OCc2ccc(C(=O)O)cc2)c1C(=O)O)NO | 14000
9 | O=C(NO)c1ccc(C(=O)c2ccccc2C(=O)NO)cc1 | ≥ 100000
10 | O=C(O)c1ccccc1OC(CCCS)C(=O)O (stereo not drawn) [2-(1-carboxy-4-mercaptobutoxy)-benzoic acid] | 4600
11 | CC(C)(C)CCOc1cccc(CCS)c1C(=O)O [2-(3,3-dimethylbutoxy)-6-(2-mercaptoethyl)-benzoic acid] | 2580
12 | O=C(O)CCC(CCCSCC(=O)NO)C(=O)O (stereo not drawn) [2-(3-Hydroxycarbamoyl-methylsulfanylpropyl)-pentanedioic acid] | 3000
13 | O=C(CSCCCC(Cc1cccc(-c2ccccc2)c1)C(=O)O)NO (stereo not drawn) [2-Biphenyl-3-ylmethyl-5-hydroxy-carbamoylmethylsulfanyl-pentanoic acid] | 4210
14 | COC(=O)c1ccccc1OCC(=O)NO [2-Hydroxycarbamoylmethoxy-benzoic acid methyl ester] | ≥ 100000
15 | O=C(COc1ccccc1C(=O)O)NO [2-Hydroxycarbamoylmethoxy-benzoic acid] | ≥ 100000
16 | O=C(O)c1ccc(Cl)c(OC(CCCS)C(=O)O)c1 (stereo not drawn) [3-(1-carboxy-4-mercaptobutoxy)-4-chloro-benzoic acid] | 118
17 | O=C(O)c1ccc(F)c(OC(CCCS)C(=O)O)c1 (stereo not drawn) [3-(1-carboxy-4-mercaptobutoxy)-4-fluoro-benzoic acid] | 400
18 | COc1ccc(C(=O)O)cc1OC(CCCS)C(=O)O (stereo not drawn) [3-(1-carboxy-4-mercaptobutoxy)-4-methoxy-benzoic acid] | 287
19 | O=C(O)Cc1cccc(OC(CCCS)C(=O)O)c1 (stereo not drawn) [3-(1-carboxy-4-mercaptobutoxy)-benzeneacetic acid] | 64
20 | O=C(CCOc1cccc(-c2cccc(C(=O)O)c2)c1C(=O)O)NO [3-(2-1-Hydroxycarbamoyl-ethoxy)-biphenyl-2,3′-dicarboxylic acid] | 14900
21 | O=C(CSCCc1cccc(-c2cccc(C(=O)O)c2)c1C(=O)O)NO [3-(2-1-Hydroxycarbamoyl-methylsulfanyl-ethyl)-biphenyl-2,3′-dicarboxylic acid] | 255
22 | O=C(O)c1cccc(CC(C(=O)O)C(=O)NO)c1 (stereo not drawn) [3-(2-Carboxy-2-hydroxycarbamoyl-ethyl)-benzoic acid] | 4530
23 | O=C(CC(Cc1cccc(C(=O)O)c1)C(=O)O)NO (stereo not drawn) [3-(2-Carboxy-3-hydroxycarbamoyl-propyl)-benzoic acid] | 693
24 | O=C(CSCC(Cc1cccc(C(=O)O)c1)C(=O)O)NO (stereo not drawn) [3-(2-Carboxy-3-hydroxycarbamoylmethyl-sulfanylpropyl)-benzoic acid] | 3070
25 | O=C(CSCCC(Cc1cccc(C(=O)O)c1)C(=O)O)NO (stereo not drawn) [3-(2-Carboxy-4-hydroxycarbamoylmethyl-sulfanylbutyl)-benzoic acid] | 4900
26 | O=C(CSCCCCC(Cc1cccc(C(=O)O)c1)C(=O)O)NO (stereo not drawn) [3-(2-Carboxy-6-hydroxycarbamoylmethyl-sulfanylhexyl)-benzoic acid] | 3330

Further lines, results first:

Row | IC50 [nM] | SMILES
27 | 7 | O=C(O)c1cccc(CC(CCCS)C(=O)O)c1 (single isomer, unassigned; (+)) [(+)-3-carboxy-alpha-(3-mercaptopropyl)-benzenepropanoic acid]
28 | 33.3 | O=C(O)c1cccc(CC(CCCS)C(=O)O)c1 (single isomer, unassigned; (-)) [(−)-3-carboxy-alpha-(3-mercaptopropyl)-benzenepropanoic acid]
29 | 1000 | O=C(O)C(CCCS)Cc1c(F)c(F)c(F)c(F)c1F (stereo not drawn) [2,3,4,5,6-pentafluoro-alpha-(3-mercaptopropyl)-benzenepropanoic acid]
30 | 19 | O=C(O)c1ccc(-c2ccccc2)c(CC(CCCS)C(=O)O)c1 (stereo not drawn) [2-(2-carboxy-5-mercaptopentyl)-[1,1′-biphenyl]-4-carboxylic acid]
31 | 380 | O=C(O)c1cc(OCc2ccccc2)ccc1CCS [2-(2-mercaptoethyl)-5-(phenylmethoxy)-benzoic acid]
32 | 266 | O=C(O)c1c(CCS)cccc1OCCc1ccccc1 [2-(2-mercaptoethyl)-6-(2-phenylethoxy)-benzoic acid]
33 | 11.5 | O=C(O)c1c(CCS)cccc1OCc1ccccc1 [2-(2-mercaptoethyl)-6-(phenylmethoxy)-benzoic acid]
34 | 1150 | O=C(O)c1c(CCS)cccc1Oc1ccccc1 [2-(2-mercaptoethyl)-6-phenoxy-benzoic acid]
35 | 613 | O=C(O)c1ccccc1CCS [2-(2-mercaptoethyl)-benzoic acid]
36 | 16100 | COc1cc(OC)cc(OC(CCCS)C(=O)O)c1 (stereo not drawn) [2-(3,5-dimethoxyphenoxy)-5-mercapto-pentanoic acid]
37 | 2900 | CC(=O)c1cccc(OC(CCCS)C(=O)O)c1 (stereo not drawn) [2-(3-acetylphenoxy)-5-mercapto-pentanoic acid]
38 | 846 | O=C(O)C(CCCS)Oc1cccc(O)c1 (stereo not drawn) [2-(3-hydroxyphenoxy)-5-mercapto-pentanoic acid]
39 | 29.8 | CC(=O)c1ccc(OC(CCCS)C(=O)O)cc1 (stereo not drawn) [2-(4-acetylphenoxy)-5-mercaptopentanoic acid]
40 | 3950 | NC(=O)c1ccccc1CC(CCCS)C(=O)O (stereo not drawn) [2-(aminocarbonyl)-alpha-(3-mercaptopropyl)-benzenepropanoic acid]
41 | 215 | O=C(O)COc1cccc(CCS)c1C(=O)O [2-(carboxymethoxy)-6-(2-mercaptoethyl)-benzoic acid]
42 | ≥ 100000 | O=C(O)c1ccccc1CS [2-(mercaptomethyl)-benzoic acid]
43 | 27700 | CC(=O)Nc1cccc(OC(CCCS)C(=O)O)c1 (stereo not drawn) [2-[3-(acetylamino)phenoxy]-5-mercapto-pentanoic acid]
44 | 2.65 | O=C(O)c1ccc(COc2cccc(CCS)c2C(=O)O)c(Br)c1 [2-[(2-bromo-4-carboxyphenyl)methoxy]-6-(2-mercaptoethyl)-benzoic acid]
45 | 11.5 | O=C(O)c1ccccc1COc1cccc(CCS)c1C(=O)O [2-[(2-carboxyphenyl)methoxy]-6-(2-mercaptoethyl)-benzoic acid]

Row | IC50 [nM] | SMILES
46 | 160 | O=C(O)c1c(CCS)cccc1OCc1ccccc1Cl [2-[(2-chlorophenyl)methoxy]-6-(2-mercaptoethyl)-benzoic acid]
47 | 0.098 | O=C(O)c1ccc(COc2cccc(CCS)c2C(=O)O)cc1Br [2-[(3-bromo-4-carboxyphenyl)methoxy]-6-(2-mercaptoethyl)-benzoic acid]
48 | 7 | COc1cc(C(=O)O)ccc1COc1cccc(CCS)c1C(=O)O [2-[(4-carboxy-2-methoxyphenyl)methoxy]-6-(2-mercaptoethyl)-benzoic acid]
49 | 10.5 | COc1cc(COc2cccc(CCS)c2C(=O)O)ccc1C(=O)O [2-[(4-carboxy-3-methoxyphenyl)methoxy]-6-(2-mercaptoethyl)-benzoic acid]
50 | 4 | O=C(O)c1ccc(COc2cccc(CCS)c2C(=O)O)cc1 [2-[(4-carboxyphenyl)methoxy]-6-(2-mercaptoethyl)-benzoic acid]
51 | 23.7 | CC(C)(C)c1cc(COc2cccc(CCS)c2C(=O)O)cc(C(=O)O)c1 [2-[[3-carboxy-5-(1,1-dimethylethyl)phenyl]methoxy]-6-(2-mercaptoethyl)-benzoic acid]
52 | 3.33 | O=C(O)c1ccc(Br)c(CC(CCCS)C(=O)O)c1 (stereo not drawn) [2-bromo-5-carboxy-alpha-(3-mercaptopropyl)-benzenepropanoic acid]
53 | 1700 | O=C(O)c1ccccc1CC(CCCS)C(=O)O (stereo not drawn) [2-carboxy-alpha-(3-mercaptopropyl)-benzenepropanoic acid]
54 | 1350 | O=C(O)C(CCCS)Cc1ccccc1Cl (stereo not drawn) [2-chloro-alpha-(3-mercaptopropyl)-benzenepropanoic acid]
55 | 450 | N#Cc1ccccc1CC(CCCS)C(=O)O (stereo not drawn) [2-cyano-alpha-(3-mercaptopropyl)-benzenepropanoic acid]
56 | ≥ 100000 | COC(=O)c1cccc(CC(C(=O)O)C(=O)NO)c1 (stereo not drawn) [3-(2-Carboxy-2-hydroxycarbamoyl-ethyl)-benzoic acid methyl ester]
57 | 44000 | O=C(O)c1cccc(CC(CNO)C(=O)O)c1 (stereo not drawn) [3-(2-Carboxy-3-hydroxyamino-propyl)-benzoic acid]
58 | 47.8 | O=C(CCC(Cc1cccc(C(=O)O)c1)C(=O)O)NO (stereo not drawn) [3-(2-Carboxy-4-hydroxycarbamoyl-butyl)-benzoic acid]
59 | 66.3 | O=C(CCCC(Cc1cccc(C(=O)O)c1)C(=O)O)NO (stereo not drawn) [3-(2-Carboxy-5-hydroxycarbamoyl-pentyl)-benzoic acid]
60 | 394 | O=C(CSCCCC(Cc1cccc(C(=O)O)c1)C(=O)O)NO (stereo not drawn) [3-(2-Carboxy-5-hydroxycarbamoylmethyl-sulfanyl-pentyl)-benzoic acid]
61 | 16000 | O=C(CSCCCC(Cc1cc(C(=O)O)ccc1Cl)C(=O)O)NO (stereo not drawn) [3-(2-Carboxy-5-hydroxycarbamoylmethyl-sulfanylpentyl)-4-chloro-benzoic acid]
62 | 3250 | O=C(CSCCCC(Cc1cc(Oc2ccccc2)cc(C(=O)O)c1)C(=O)O)NO (stereo not drawn) [3-(2-Carboxy-5-hydroxycarbamoylmethyl-sulfanylpentyl)-5-phenoxy-benzoic acid]
63 | 384 | O=C(CSCCCC(Cc1cccc(C(=O)O)c1)C(=O)O)NO (stereo not drawn) [3-(2-Carboxy-5-hydroxycarbamoylmethyl-sulfanylpentyl)-benzoic acid]
